Target: T1, histamine H3 receptor (Rattus norvegicus, UniProt Q9QYN8)
T1 construct: from tissue; host or cells: rat striatum (Sprague-Dawley, male, 6 weeks), membrane homogenate
Test: Histamine H3 receptor binding assay ([3H]-Nα-methylhistamine binding to rat striatum homogenate)
Conditions: 1 μmol/L test compound; [3H]-Nα-methylhistamine 1 nmol/L; striata of Sprague-Dawley male rats, 25° C., 1 hour; read-out: Inhibition ratio of [3H]-Nα-methylhistamine binding
Experimental: To the striata of Sprague-Dawley male rats (6 weeks of age), a 10-fold volume of lysis buffer {50 mmol/L [[…] (Tris)]/HCl (pH 7.4), 5 mmol/L ethylenediaminetetraacetic acid (EDTA), a protease inhibitor mixture [1 mg/mL phenylmethylsulfonyl fluoride (PMSF), 1 μg/mL pepstatin A, 1 μg/mL leupeptin, 1 μg/mL chymostatin]} was added and the striata were homogenized. The resulting homogenate was centrifuged (30,000×g, 4° C., 30 min), and the obtained precipitate was resuspended in a 10-fold volume of lysis buffer, followed by centrifugation under the same condition. To the obtained precipitate, a 3-fold volume of lysis buffer was added to suspend the precipitate, and the resulting tissue homogenate was used for a test.
A test compound was dissolved in an assay buffer [50 mmol/L Tris/HCl (pH 7.4), 5 mmol/L EDTA], and [^3H]-N^α-methylhistamine (1 nmol/L) and the tissue homogenate (20 μg, in terms of protein amount) were added thereto, and then, the mixture was incubated at 25° C. for 1 hour. Then, the reaction was terminated by rapid suction filtration on a glass filter [GF/B: Whatman, previously soaked in 0.3 w/v % polyethylenimine for about 30 min]. Then, the glass filter was washed three times with 3 mL of assay buffer. This glass filter was transferred into a scintillation vial and dried at 60° C. for 30 minutes. Then, 0.5 mL of Ultimagold (Perkin Elmer) was added thereto, and the radioactivity (binding amount of [^3H]-N^α-methylhistamine) was measured using a liquid scintillation counter. The obtained value was used as a binding amount in the presence of the test compound. The same procedure as described above was carried out in the absence of the test compound, and the binding amount of [^3H]-N^α-methylhistamine obtained at this time was used as a binding amount in the absence of the test compound. Further, the binding amount of [^3H]-N^α-methylhistamine obtained in the presence of 10 μmol/L thioperamide was used as a non-specific binding amount. An inhibitory action of [^3H]-N^α-methylhistamine binding was represented by an inhibition ratio in terms of 1 μmol/L of the test compound calculated by the following Equation (1).
Inhibition ratio(%)={1−[(Binding amount in the presence of test compound)−(Non-specific binding amount)]/[(Binding amount in the absence of test compound)−(Non-specific binding amount)]}×100 (1)

T1 sequence (Q9QYN8 whole entry): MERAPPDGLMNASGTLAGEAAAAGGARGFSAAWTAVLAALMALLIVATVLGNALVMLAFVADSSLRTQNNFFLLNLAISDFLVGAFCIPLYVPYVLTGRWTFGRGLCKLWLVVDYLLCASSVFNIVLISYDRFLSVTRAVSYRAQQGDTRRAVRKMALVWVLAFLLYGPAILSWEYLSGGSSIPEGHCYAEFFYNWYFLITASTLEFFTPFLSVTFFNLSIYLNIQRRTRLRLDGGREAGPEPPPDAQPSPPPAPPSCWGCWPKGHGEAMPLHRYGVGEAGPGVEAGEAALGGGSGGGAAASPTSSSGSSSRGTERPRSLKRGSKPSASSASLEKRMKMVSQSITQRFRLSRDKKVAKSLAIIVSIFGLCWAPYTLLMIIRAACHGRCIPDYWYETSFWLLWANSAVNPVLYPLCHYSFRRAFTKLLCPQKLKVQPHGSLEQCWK

| Compound | inhibition at 1 µM |
| --- | --- |
| N#CN=C1N(CCCN2CCCCC2)CCN1CCCN1CCCCC1 [Compound 139, 1,3-Bis(3-piperidinopropyl)imidazolidin-2-ylidene Cyanoamide Difumarate] | ≥ 80% |
| CC1CCCN1CCCN1CCN(CCCN2CCCC2C)C1=NC#N (stereo not shown) [Compound 140, 1,3-Bis[3-(2-methylpyrrolidin-1-yl)propyl]imidazolidin-2-ylidenecyanoamide Difumarate] | ≥ 80% |
| CC1CCCN1CCCN1CCN(CCCN2CCCC2C)C1=O (stereo not shown) [Compound 141, 1,3-Bis[3-(2-methylpyrrolidin-1-yl)propyl]imidazolidine-2-one] | ≥ 80% |
| CC1CCCN1CC1CCN(C(NCCN2CCCCC2)=C(C#N)C#N)CC1 (stereo not shown) [Compound 148, {[4-(2-Methylpyrrolidin-1-ylmethyl)piperidino](2-piperidinoethylamino)methylene}malononitrile] | ≥ 80% |
| C[C@@H]1CCCN1CCN(C)C(=C(C#N)C#N)N1CCC(CN2CCCCC2)CC1 [Compound 151, ({N-methyl-N-[2-((R)-2-methylpyrrolidin-1-yl)ethyl]amino}(4-piperidinomethylpiperidino)methylene)malononitrile] | ≥ 80% |
| C[C@H]1CCCN1CCN(C)C(=C(C#N)C#N)N1CCC(CN2CCCCC2)CC1 [Compound 153, ({N-methyl-N-[2-((S)-2-methylpyrrolidin-1-yl)ethyl]amino}(4-piperidinomethylpiperidino)methylene)malononitrile] | ≥ 80% |
| CC1CCCN1CC1CCN(C(=C(C#N)C#N)N(C)CCN2CCC[C@H]2C)CC1 (stereo partly drawn) [Compound 155, ({N-methyl-N-[2-((R)-2-methylpyrrolidin-1-yl)ethyl]amino}[4-(2-methylpyrrolidin-1-ylmethyl)piperidino]methylene)malononitrile] | ≥ 80% |
| CC1CCCN1CC1CCN(C(=C(C#N)C#N)N(C)CCN2CCC[C@@H]2C)CC1 (stereo partly drawn) [Compound 157, ({N-methyl-N-[2-((S)-2-methylpyrrolidin-1-yl)ethyl]amino}[4-(2-methylpyrrolidin-1-ylmethyl)piperidino]methylene)malononitrile] | ≥ 80% |
| N#CC(C#N)=C(NCCCN1CCC(F)(F)C1)N1CCC(N2CCCCC2)CC1 [Compound 168, {[3-(3,3-Difluoropyrrolidin-1-yl)propylamino](4-piperidinopiperidino)methylene}malononitrile] | ≥ 80% |
| CN(CCCN1CCC(F)(F)C1)C(=C(C#N)C#N)N1CCC(N2CCCCC2)CC1 [Compound 169, ({N-[3-(3,3-difluoropyrrolidin-1-yl)propyl]-N-methylamino}(4-piperidinopiperidino)methylene)malononitrile] | ≥ 80% |
| CC1CCCN1CCCNC(=C(C#N)C#N)N1CCC(N2CCCCC2)CC1 (stereo not shown) [Compound 170, {[3-(2-Methylpyrrolidin-1-yl)propylamino](4-piperidinopiperidino)methylene}malononitrile] | ≥ 80% |
| N#CC(C#N)=C(NCCCN1CCCCC1)N1CCC(CN2CCCCC2)CC1 [Compound 172, [(4-Piperidinomethylpiperidino)(3-piperidinopropylamino)methylene]malononitrile] | ≥ 80% |
| CC1CCCN1CCCNC(=C(C#N)C#N)N1CCC(CN2CCCCC2)CC1 (stereo not shown) [Compound 173, {[3-(2-Methylpyrrolidin-1-yl)propylamino](4-piperidinomethylpiperidino)methylene}malononitrile] | ≥ 80% |
| CC1CCCN1CCCNC(=C(C#N)C#N)N1CCC(CN2CCCC2C)CC1 (stereo not shown) [Compound 174, {[4-(2-Methylpyrrolidin-1-ylmethyl)piperidino][3-(2-methylpyrrolidin-1-yl)propylamino]methylene}malononitrile] | ≥ 80% |

Results, then the compound that gave them:

| inhibition at 1 µM | Compound |
| --- | --- |
| ≥ 80% | CC(C)N1CCC(NC(=C(C#N)C#N)N2CCC(CN3CCCCC3)CC2)CC1 [Compound 178, [(1-Isopropylpiperidin-4-ylamino)(4-piperidinomethylpiperidino)methylene]malononitrile] |
| ≥ 80% | CC(C)N1CCC(N2CCN(CCC3CCCN3C)C2=C(C#N)C#N)CC1 (stereo not shown) [Compound 187, {1-(1-Isopropylpiperidin-4-yl)-3-[2-(1-methylpyrrolidin-2-yl)ethyl]imidazolidin-2-ylidene}malononitrile] |
| ≥ 80% | C[C@H]1CCCN1CCCCN1CCN(CCN2CCC[C@@H]2C)C1=C(C#N)C#N [Compound 190, {1-[4-((S)-2-methylpyrrolidin-1-yl)butyl]-3-[2-((S)-2-methylpyrrolidin-1-yl)ethyl]imidazolidin-2-ylidene}malononitrile] |
| ≥ 80% | C[C@@H]1CCCN1CCCCN1CCN(CCN2CCC[C@H]2C)C1=C(C#N)C#N [Compound 191, {1-[4-((R)-2-methylpyrrolidin-1-yl)butyl]-3-[2-((R)-2-methylpyrrolidin-1-yl)ethyl]imidazolidin-2-ylidene}malononitrile] |
| ≥ 80% | CC1CCCN(CCN2CCN(CCCN3CCC[C@@H]3C)C2=C(C#N)C#N)C1 (stereo partly drawn) [Compound 199, {3-[2-(3-Methylpiperidino)ethyl]-1-[3-((S)-2-methylpyrrolidin-1-yl)propyl]imidazolidin-2-ylidene}malononitrile] |
| ≥ 80% | C[C@H]1CCCN1CCCN1CCN(CCCN2CCSCC2)C1=C(C#N)C#N [Compound 202, {1-[3-((S)-2-methylpyrrolidin-1-yl)propyl]-3-[3-(thiomorpholin-1-yl)propyl]imidazolidin-2-ylidene}malononitrile] |
| ≥ 80% | CC1CCCN1CCCN1CCN(CCCN2CCC(=O)CC2)C1=C(C#N)C#N (stereo not shown) [Compound 203, {1-[3-(2-Methylpyrrolidin-1-yl)propyl]-3-[3-(4-oxopiperidino)propyl]imidazolidin-2-ylidene}malononitrile] |
| ≥ 80% | CC(C)N1CCC(N2CCN(CCN3CCCCC3)C2=C(C#N)C#N)CC1 [Compound 207, [1-(1-Isopropylpiperidin-4-yl)-3-(2-piperidinoethyl)imidazolidin-2-ylidene]malononitrile] |
| ≥ 80% | CC(C)N1CCC(N2CCN(CCN3CCC[C@@H]3C)C2=C(C#N)C#N)CC1 [Compound 210, {1-(1-Isopropylpiperidin-4-yl)-3-[2-((S)-2-methylpyrrolidin-1-yl)ethyl]imidazolidin-2-ylidene}malononitrile] |
| ≥ 80% | N#CCN1CCC(N2CCN(CCCN3CCCCC3)C2=C(C#N)C#N)CC1 [Compound 214, [1-(1-Cyanomethylpiperidin-4-yl)-3-(3-piperidinopropyl)imidazolidin-2-ylidene]malononitrile] |
| ≥ 80% | CC(C)N1CCC(N2CCN(CCCN3CCCC3C)C2=C(C#N)C#N)CC1 (stereo not shown) [Compound 219, {1-(1-Isopropylpiperidin-4-yl)-3-[3-(2-methylpyrrolidin-1-yl)propyl]imidazolidin-2-ylidene}malononitrile] |
| ≥ 80% | N#CC(C#N)=C1N(CCCN2CCOCC2)CCN1C1CCN(CCF)CC1 [Compound 222, {1-[1-(2-Fluoroethyl)piperidin-4-yl]-3-(3-morpholinopropyl)imidazolidin-2-ylidene}malononitrile] |
| ≥ 80% | C=CCN1CCC(N2CCN(CCCN3CCCCC3)C2=C(C#N)C#N)CC1 [Compound 227, [1-(1-Allylpiperidin-4-yl)-3-(3-piperidinopropyl)imidazolidin-2-ylidene]malononitrile] |
| ≥ 80% | N#CC(C#N)=C1N(CCCN2CCCCC2)CCN1C1CCN(CC2CC2)CC1 [Compound 229, [1-(1-Cyclopropylmethylpiperidin-4-yl)-3-(3-piperidinopropyl)imidazolidin-2-ylidene]malononitrile] |
| ≥ 80% | CC(C)N1CCC(N2CCCN(CCCN3CCCCC3)C2=C(C#N)C#N)CC1 [Compound 238, [1-(1-Isopropylpiperidin-4-yl)-3-(3-piperidinopropyl)tetrahydropyrimidin-2-ylidene]malononitrile] |
| ≥ 80% | C[C@@H]1CCCN1CCN1CCN(CCCN2CCC[C@@H]2C)C1=C(C#N)S(=O)(=O)c1ccccc1 [Compound 243, {3-[2-((R)-2-methylpyrrolidin-1-yl)ethyl]-1-[3-((S)-2-methylpyrrolidin-1-yl)propyl]imidazolidin-2-ylidene}benzenesulfonylacetonitrile] |
| ≥ 80% | CC1CCCN1CCCN1CCN(CCCN2CCCC2C)C1=C(C#N)S(=O)(=O)c1ccccc1 (stereo not shown) [Compound 244, {1,3-Bis[3-(2-methylpyrrolidin-1-yl)propyl]imidazolidin-2-ylidene}benzenesulfonylacetonitrile] |
